Consider 20 molecules from patent publication US4636500A, “N-(phenoxyalkyl)imidazoles as selective inhibitors of the thromboxane synthetase enzyme and pharmaceutical compositions thereof” (Pfizer Inc., priority 1978, dated 1987).

For assay [1], the target named is T1, prostacyclin synthetase (Sus scrofa, UniProt A0A5G2QT35).
T1 construct: Pig aorta microsomes; from tissue; host or cells: pig aorta microsomes
T1 sequence (A0A5G2QT35 1-497): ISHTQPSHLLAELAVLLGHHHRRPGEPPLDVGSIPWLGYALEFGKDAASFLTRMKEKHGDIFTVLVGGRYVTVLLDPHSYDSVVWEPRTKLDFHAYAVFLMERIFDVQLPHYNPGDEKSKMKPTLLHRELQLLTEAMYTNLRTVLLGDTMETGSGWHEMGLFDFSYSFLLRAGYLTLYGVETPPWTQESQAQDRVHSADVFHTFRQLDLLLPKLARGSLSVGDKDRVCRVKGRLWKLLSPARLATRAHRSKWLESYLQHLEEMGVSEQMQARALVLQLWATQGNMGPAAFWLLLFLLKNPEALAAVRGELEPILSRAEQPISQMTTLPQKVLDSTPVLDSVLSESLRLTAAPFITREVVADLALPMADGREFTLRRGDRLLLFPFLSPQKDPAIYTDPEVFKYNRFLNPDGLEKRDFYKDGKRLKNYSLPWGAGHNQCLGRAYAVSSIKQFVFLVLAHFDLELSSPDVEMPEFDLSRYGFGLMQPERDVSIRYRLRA
Particulars: pig aorta microsomes; pre-incubation of the enzyme; literature; cited from earlier work.

Assay [2] deals with T1, prostacyclin synthetase. In words: Prostacyclin (PGI2) synthetase inhibition; pig aorta microsomes, rabbit aorta strip bioassay. The format is biochemical. The following applies: 5 min pre-incubation, read-out: Molar concentration causing 50% inhibition of (3) prostacyclin synthetase. The protocol: The effect of the compounds of the formula (I) on the thromboxane synthetase enzyme, and the prostacyclin synthetase and cyclo-oxygenase enzymes has been measured by the following in vitro enzyme assays:
Pig aorta microsomes (Nature, 1976, 263, 663) are incubated (30 sec.; 22° C.) with PGH2 produced as in 1) and aliquots bio-assayed as in 1. […] The test compound is then pre-incubated with the enzyme for 5 minutes, and its ability to prevent the decrease in tension is measured.
The results of these tests are shown in the following Table, which gives the molar concentration of each compound which caused a 50% change in the effect of the relevant enzyme on isometric tension, i.e. caused a 50% inhibition of the action of that enzyme.

The next assay has as its target T2, thromboxane synthetase (Homo sapiens, UniProt P24557).
T2 construct: human platelet microsomes; from tissue; host or cells: human blood platelets (indomethacin-pretreated), microsomes
T2 sequence (P24557 1-533): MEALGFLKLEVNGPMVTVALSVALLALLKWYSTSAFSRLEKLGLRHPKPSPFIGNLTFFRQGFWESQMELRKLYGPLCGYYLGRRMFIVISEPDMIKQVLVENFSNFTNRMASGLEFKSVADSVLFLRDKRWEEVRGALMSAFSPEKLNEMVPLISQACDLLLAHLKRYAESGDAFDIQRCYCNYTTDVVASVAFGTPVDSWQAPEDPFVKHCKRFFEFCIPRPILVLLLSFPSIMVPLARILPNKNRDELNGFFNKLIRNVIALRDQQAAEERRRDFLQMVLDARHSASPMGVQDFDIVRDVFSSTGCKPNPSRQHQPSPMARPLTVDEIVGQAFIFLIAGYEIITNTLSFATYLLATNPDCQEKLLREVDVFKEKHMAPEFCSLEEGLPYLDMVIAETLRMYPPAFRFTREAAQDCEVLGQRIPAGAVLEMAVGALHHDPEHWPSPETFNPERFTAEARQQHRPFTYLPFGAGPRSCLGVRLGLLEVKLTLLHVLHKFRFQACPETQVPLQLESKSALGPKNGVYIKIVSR
In words: Thromboxane A2 (TxA2) synthetase inhibition; Indomethacin pretreated human platelet microsomes, rabbit aorta superfusion bioassay. The format is biochemical. The following applies: for IC50: human platelet microsomes, 5 min pre-incubation, read-out: Molar concentration causing 50% inhibition of (1) thromboxane synthetase; for Ratio of (3) to (1): prostacyclin synthetase / thromboxane synthetase 50% inhibition concentrations. As for the experimental part:
Indomethacin pretreated human platelet microsomes (Science 1976, 193, 163) are incubated (2 min.: 0° C.) with PGH2 (produced as in 1) and aliquots of the reaction mixture superfused over two rabbit aorta spirals which are separated by a delay coil (2 min.). The latter is required to allow the selective decay of the more unstable thromboxane A2 (Proc. Nat. Acad. Sci. 1975, 72, 2994) thereby enabling the separate measurement of increased isometric tension due to the TxA2 formed and the PGH2 remaining. The test compound is pre-incubated with the enzyme for 5 minutes, and its ability to inhibit the thromboxane synthetase enzyme is measured as its reduction of the TxA2 component of the isometric tension.

The next assay has as its target T3, cyclo-oxygenase (Ovis aries, UniProt P05979).
T3 construct: Ram seminal vesicle microsomes; from tissue; host or cells: ram seminal vesicle microsomes
T3 sequence (P05979 25-600): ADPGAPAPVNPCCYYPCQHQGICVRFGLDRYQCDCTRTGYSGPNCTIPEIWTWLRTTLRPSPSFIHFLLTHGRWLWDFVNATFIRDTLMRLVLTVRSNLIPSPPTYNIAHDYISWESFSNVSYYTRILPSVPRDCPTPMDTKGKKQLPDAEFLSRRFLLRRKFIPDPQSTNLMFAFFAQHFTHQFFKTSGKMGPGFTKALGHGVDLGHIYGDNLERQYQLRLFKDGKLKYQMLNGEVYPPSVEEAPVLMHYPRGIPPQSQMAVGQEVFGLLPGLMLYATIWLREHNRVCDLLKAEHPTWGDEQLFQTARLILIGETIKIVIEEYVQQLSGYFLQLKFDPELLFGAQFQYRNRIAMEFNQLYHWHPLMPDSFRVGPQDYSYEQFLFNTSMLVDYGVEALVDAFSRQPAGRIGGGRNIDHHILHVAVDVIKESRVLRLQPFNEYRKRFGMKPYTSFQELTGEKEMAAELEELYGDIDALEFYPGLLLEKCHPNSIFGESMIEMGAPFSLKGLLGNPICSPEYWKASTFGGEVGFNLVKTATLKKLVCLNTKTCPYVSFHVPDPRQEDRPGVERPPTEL
In words: Cyclo-oxygenase inhibition; ram seminal vesicle microsomes, rabbit aorta strip bioassay. It counts as biochemical. Particulars: 5 min pre-incubation, read-out: Molar concentration causing 50% inhibition of (2) cyclo-oxygenase. As for the experimental part: Ram seminal vesicle microsomes(Biochemistry, 1971, 10, 2372) are incubated with arachidonic acid (100 μM: 1 min.: 22°) to produce PGH2 and aliquots of the reaction mixture injected into a stream of Krebs-bicarbonate at 37° C. (containing a mixture of antagonists (Nature, […], 218, 1135) and indomethacin (Brit. J. Pharmacol., 1972, 45, 451) which is superfusing a spirally-cut rabbit aorta strip (Nature, 1969, 223, 29). The ability of a compound to inhibit the enzyme is measured by comparing the increases in isometric tension produced by PGH2 in the absence of the test compound, and following pre-incubation of the enzyme with the test compound for 5 minutes.

Assay [3] has as its system human blood platelet aggregation. Briefly: in vitro inhibition of human blood platelet aggregation. It counts as cell-based. The following applies: human platelets, qualitative. An excerpt:
In addition to the above as in vitro assay for measuring the inhibition of human blood platelet aggregation has been described and this may be predictive of anti-thrombotic efficacy clinically (Lancet (ii), 1974, 1223; J. Exp. Med., 1967, 126, 171).

Another assay relates to cyclo-oxygenase enzyme. Particulars: background statement; cited from earlier work.
Assay [4] deals with human blood platelet aggregation. Particulars: human blood platelets; literature; cited from earlier work.
The next assay relates to rabbits. Particulars: intravenous arachidonic acid, literature; cited from earlier work.
The test system of a further assay is aggregation of platelets. Particulars: rat abdominal aorta, in vivo; literature; cited from earlier work.

Structures can show the parent of a compound that is named as a salt. A value given as a limit tells only on which side of the number the result lay.

`CCCCCC(/C=C/C=C\C/C=C\C/C=C\CCCC(=O)O)OO` (stereo not shown) [15-hydroperoxy-arachidonic acid]: the “prevention of the decrease in PGH2-induced tension (PGI2 synthetase inhibition)” value on prostacyclin synthetase [1] is “prevented completely”.
As for `NC(=O)c1ccc(OCCn2ccnc2)cc1` [Example 1, 1-[2-(4-Carbamoylphenoxy)ethyl]imidazole], the IC50 was above 100000 nM at prostacyclin synthetase [2], 22 nM on thromboxane synthetase and above 100000 nM at cyclo-oxygenase. Besides, the “Ratio of (3) to (1)” value on thromboxane synthetase was > 4,500.
Consider `NC(=O)c1ccccc1OCCn1ccnc1` [Example 2], for which the IC50 on thromboxane synthetase came out at 10000 nM.
Consider `NC(=O)Cc1ccc(OCCn2ccnc2)cc1` [Example 3], for which the IC50 at thromboxane synthetase turned out to be 1000 nM.
As to `CCOC(=O)c1ccccc1OCCn1ccnc1` [Example 4, 1-[2-(2-ethoxycarbonyl-phenoxy)ethyl]imidazole], the IC50 at prostacyclin synthetase [2] was above 100000 nM. At thromboxane synthetase, the IC50 came out at 40 nM and the “Ratio of (3) to (1)” value was > 2,500.
In the case of `CCOC(=O)Cc1cccc(OCCn2ccnc2)c1` [Example 7], the IC50 on prostacyclin synthetase [2] worked out at 100000 nM. Also, at thromboxane synthetase, the IC50 stood at 46 nM and the “Ratio of (3) to (1)” value is 2,200.
`CCOC(=O)Cc1ccc(OCCn2ccnc2)cc1` [Example 8]: on prostacyclin synthetase [2], the IC50 was above 100000 nM. For the same molecule, on thromboxane synthetase, the IC50 is 34 nM and the “Ratio of (3) to (1)” value was > 2,900.
For the molecule `O=C(O)c1ccc(OCCn2ccnc2)cc1` [Example 16, 1-[2-(4-Carboxyphenoxy)ethyl]imidazole], the IC50 at prostacyclin synthetase [2] is above 100000 nM. The “preventing human blood platelet aggregation” value in assay [3] is reported as “effective in preventing human blood platelet aggregation”.
`O=C(O)c1ccccc1OCCn1ccnc1` [Example 17, 1-[2-(2-Carboxyphenoxy)ethyl]imidazole Hydrochloride]: the IC50 on thromboxane synthetase turned out to be 34000 nM.
For the molecule `O=C(O)COc1ccc(OCCn2ccnc2)cc1` [Example 18, 4-[2-(1-Imidazolyl)ethoxy]phenoxyacetic acid Hydrochloride], the IC50 on thromboxane synthetase was 4.2 nM.
On to `O=C(O)Cc1ccccc1OCCn1ccnc1` [Example 19, 2-[2-(1-Imidazolyl)ethoxy]phenylacetic acid Hydrochloride], for which, at thromboxane synthetase, the IC50 was determined as 580 nM.
`O=C(O)c1cccc(OCCn2ccnc2)c1` [Example 21, 1-[2-(3-Carboxyphenoxy)ethyl]imidazole Hydrochloride]: on thromboxane synthetase, the IC50 was 12 nM.
With `c1cn(CCOc2ccc(-c3nnn[nH]3)cc2)cn1` [Example 22, 1-[2-(4-Tetrazol-5-ylphenoxy)ethyl]imidazole], on thromboxane synthetase, the IC50 was 4.9 nM.
As for `NC(=O)COc1ccc(OCCn2ccnc2)cc1` [Example 23, 4-[2-(1-Imidazolyl)ethoxy]phenoxyacetamide], the IC50 at thromboxane synthetase is 16 nM.
For `CNC(=O)c1ccc(OCCn2ccnc2)cc1` [Example 24, 1-[2-(4-N-Methylcarbamoylphenoxy)ethyl]imidazole], the values for the IC50 at prostacyclin synthetase [2], at thromboxane synthetase and at cyclo-oxygenase were above 100000 nM, 5 nM and above 100000 nM, respectively. At thromboxane synthetase, the “Ratio of (3) to (1)” value is on record as > 20,000.
Take `CN(C)C(=O)c1ccc(OCCn2ccnc2)cc1` [Example 25, 1-[2-(4-N,N-Dimethylcarbamoylphenoxy)ethyl]imidazole]: the IC50 on prostacyclin synthetase [2] is above 100000 nM; on thromboxane synthetase it was 5.6 nM; on cyclo-oxygenase, above 100000 nM. In addition, on thromboxane synthetase, the “Ratio of (3) to (1)” value is given as > 18,000.
On to `O=C(c1ccc(OCCn2ccnc2)cc1)N1CCOCC1` [Example 26, 1-[4-(2-Imidazol-1-yl)ethoxybenzoyl]morpholine], for which the IC50 at thromboxane synthetase was determined as 10000 nM.
As to `NC(=O)Cc1ccccc1OCCn1ccnc1` [Example 39, 1-[2-(2-Carbamoylmethylphenoxy)ethyl]imidazole], on thromboxane synthetase, the IC50 amounted to 6600 nM.
Take `CC(=O)Oc1ccccc1C(=O)O` [aspirin]: the “inhibition of the cyclo-oxygenase enzyme” value in the assay with cyclo-oxygenase enzyme is given as “inhibit the cyclo-oxygenase enzyme”. Moreover, the “inhibitory activity in vitro against a variety of aggregating agents” value in assay [4] was “show inhibitory activity in vitro against a variety of aggregating agents”. Also, the “protect the rabbit from the lethal effect of the injection” value in the assay on rabbits is listed as “protect the rabbit from the lethal effect of the injection”.
Consider `O=C1C(CC[S+]([O-])c2ccccc2)C(=O)N(c2ccccc2)N1c1ccccc1` (stereo not shown) [sulphinpyrazone], for which the “inhibitory activity in vitro against a variety of aggregating agents” value in [4] is recorded as “show inhibitory activity in vitro against a variety of aggregating agents”. Further, in the assay on aggregation of platelets, the “prevent the aggregation of platelets in an extra corporeal loop” value is on record as “prevent the aggregation of platelets in an extra corporeal loop of the abdominal aorta of rats in vivo”. For the same molecule, the “protect the rabbit from the lethal effect of the injection” value in the assay with rabbits is given as “protect the rabbit from the lethal effect of the injection”.
